In US11179389B2, “Purine inhibitors of human phosphatidylinositol 3-kinase delta” (Merck Sharp & Dohme Corp., priority 2017, dated 2021):

Assays:
PI3Kdelta = PI3Kdelta (Homo sapiens (Human), UniProt O00329); experiment: HTRF PI3K biochemical assay, delta isoform; settings: 0.3 nM enzyme, 100 uM ATP, 5 uM PIP2, form screened per table (Neutral or TFA salt)
Description: (§1) HTRF PI3K Biochemical Assay to Measure Intrinsic Potency of Compound Inhibitors
(§2) The PI3-Kinase biochemical assays were developed to measure the intrinsic potency and compound dependent inhibition of the alpha, beta, delta, and gamma PI3K isoform enzymes. This assay was developed and further optimized from a kit produced by Upstate (Millipore catalog #33-047) (Millipore Sigma. Billerica Mass., USA) and has been configured for high throughput screening (HTS) and structure-activity relationship (SAR) screening. Briefly, this procedure exploits the exquisite specificity and high affinity binding of enzyme reaction […] phosphatidyl(3,4,5)triphosphate (PIP3) to the GRP1 pleckstrin homology (PH) domain to generate the signal. In the absence of PIP3, an HTRF (Homogeneous Time-Resolved Fluorescence energy transfer) complex is formed consisting of europium (Eu)-labeled anti-GST, GSTtagged GRP1-PH domain, biotin-PIP3 (biotinylated-PIP3) and streptavidin conjugated APC (Allophycocyanin). The native PIP3 produced by PI3-Kinase activity disrupts in a competitive manner the biotin-PIP3 from the pleckstrin homology (PH) domain, resulting in the loss of energy transfer (HTRF complex) and a decrease in the signal. The format of this assay is the same for all 4 isoforms of PI3K; the differences lie in the concentration of enzyme used to achieve robust assay window. The alpha, beta, and delta assays are run at 0.5, 1, and 0.3 nM enzymes and the gamma assay is run at 5 nM enzyme. The ATP concentration is 100 uM in the alpha, beta, and delta assays and 50 uM adenosine triphosphate (ATP) in the gamma assay. All reactions are run at 5 uM PIP2.
(§3) Compounds are serially diluted (3-fold in 100% DMSO) across a 384-well polypropylene source plated from column 3 to column 12 and column 13 to column 22, to yield 10 concentration dose response for each test compound. Columns 1, 2, 23 and 24 contain either only DMSO or pharmacological known control inhibitor. Once titrations are made, 2.5 nL of the compounds on 384 well plates are reformatted and transferred by acoustic dispense in quadruplicates to a 1536 assay plate (Greiner) to assay across all four PI3K isoform enzymes.
(§4) The PI3-Kinase biochemical assay was optimized using the HTRF kit provided by Upstate (Millipore). The assay kit contains six reagents: 1) 4×Reaction Buffer; 2) native PIP2 (substrate); 3) Stop (EDTA); 4) Detection Mix A (Streptavidin-APC); 5) Detection Mix B (Eu-labeled Anti-GST plus GST-tagged PH-domain): 6) Detection Mix C. In addition, the following items were obtained or purchased; PI3Kinase (catalog #'s alpha 14-602, beta 14-603, gamma 14-558 and delta 14-604 from Upstate Biotechnology now EMD Millipore, Mahopac, N.Y., USA), dithiothreitol (Sigma-Aldrich Corp. (St. Louis, Mo., USA) Catalog #D-5545), Adenosine-5′ triphosphate (InVitrogen (Waltham, Mass., USA), Cat#AS001 Å), native PIP3 (PI(3,4,5)P3, diC8, H^+, CELLSIGNALS, INC., (Columbus, Ohio, USA) Cat #907) DMSO ((Sigma-Aldrich Corp. (St. Louis. Mo., USA) Catalog #472301).
(§5) PI3Kinase Reaction Buffer is prepared by dilution the stock 1:4 with de-ionized water. DTT (DL-Dithiothreitol), phosphatidylinositol 4,5-bisphosphate (PIP2) and Biotin-PIP3 were added to 1536 assay plate at a final concentration of 5 mM, […] and 25 nM on the day of use. Enzyme addition and compound pre-incubation are initiated by the addition of 1.25 ul of PI3K (at twice its final concentration) in the 1× reaction buffer to all wells using a BioRaptor™. Plates are incubated at room temperature for 15 minutes. Reactions are initiated by addition of 1.25 ul of 2× substrate solution (PIP2 and ATP in 1× reaction buffer) using BioRaptor™. Plates are incubated in humidified chamber at room temperature for one hour. Reactions are quenched by addition of 0.625 uL of stop solution to all wells using the BioRaptor™. […]

PI3Kalpha = PI3Kalpha (Homo sapiens (Human), UniProt P42336); experiment: HTRF PI3K biochemical assay, alpha isoform (for selectivity ratio); settings: ratio PI3K-alpha IC50 value / PI3K-delta IC50 value
PI3Kalpha, sequence (P42336 whole entry, canonical isoform): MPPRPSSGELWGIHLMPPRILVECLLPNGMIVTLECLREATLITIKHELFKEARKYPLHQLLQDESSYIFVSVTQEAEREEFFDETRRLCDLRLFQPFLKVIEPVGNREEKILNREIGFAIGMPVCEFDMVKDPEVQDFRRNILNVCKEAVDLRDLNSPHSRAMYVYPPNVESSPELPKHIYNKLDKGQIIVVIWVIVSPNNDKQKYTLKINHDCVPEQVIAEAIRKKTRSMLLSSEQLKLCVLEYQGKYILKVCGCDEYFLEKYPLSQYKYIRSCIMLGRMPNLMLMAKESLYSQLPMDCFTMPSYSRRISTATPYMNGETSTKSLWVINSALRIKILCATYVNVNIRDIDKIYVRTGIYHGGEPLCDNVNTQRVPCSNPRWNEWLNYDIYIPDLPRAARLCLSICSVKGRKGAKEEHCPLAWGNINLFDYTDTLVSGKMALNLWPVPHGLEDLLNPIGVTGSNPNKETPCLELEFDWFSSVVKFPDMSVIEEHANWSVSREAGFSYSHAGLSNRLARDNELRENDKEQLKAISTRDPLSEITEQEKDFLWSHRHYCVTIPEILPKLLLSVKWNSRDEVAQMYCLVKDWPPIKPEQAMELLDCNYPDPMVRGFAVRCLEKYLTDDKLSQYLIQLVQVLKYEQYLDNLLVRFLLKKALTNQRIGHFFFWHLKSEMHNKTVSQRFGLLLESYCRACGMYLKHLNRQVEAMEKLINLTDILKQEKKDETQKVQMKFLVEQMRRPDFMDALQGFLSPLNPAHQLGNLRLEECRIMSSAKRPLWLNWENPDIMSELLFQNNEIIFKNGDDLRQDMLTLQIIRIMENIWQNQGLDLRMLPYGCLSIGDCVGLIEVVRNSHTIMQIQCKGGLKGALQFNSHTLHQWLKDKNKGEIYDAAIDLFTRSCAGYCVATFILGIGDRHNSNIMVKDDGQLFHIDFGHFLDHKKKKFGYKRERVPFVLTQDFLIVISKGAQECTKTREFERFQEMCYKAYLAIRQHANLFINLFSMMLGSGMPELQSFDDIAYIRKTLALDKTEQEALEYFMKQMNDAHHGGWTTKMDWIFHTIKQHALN
PI3Kalpha, sequence (P27986 whole entry partner, canonical isoform): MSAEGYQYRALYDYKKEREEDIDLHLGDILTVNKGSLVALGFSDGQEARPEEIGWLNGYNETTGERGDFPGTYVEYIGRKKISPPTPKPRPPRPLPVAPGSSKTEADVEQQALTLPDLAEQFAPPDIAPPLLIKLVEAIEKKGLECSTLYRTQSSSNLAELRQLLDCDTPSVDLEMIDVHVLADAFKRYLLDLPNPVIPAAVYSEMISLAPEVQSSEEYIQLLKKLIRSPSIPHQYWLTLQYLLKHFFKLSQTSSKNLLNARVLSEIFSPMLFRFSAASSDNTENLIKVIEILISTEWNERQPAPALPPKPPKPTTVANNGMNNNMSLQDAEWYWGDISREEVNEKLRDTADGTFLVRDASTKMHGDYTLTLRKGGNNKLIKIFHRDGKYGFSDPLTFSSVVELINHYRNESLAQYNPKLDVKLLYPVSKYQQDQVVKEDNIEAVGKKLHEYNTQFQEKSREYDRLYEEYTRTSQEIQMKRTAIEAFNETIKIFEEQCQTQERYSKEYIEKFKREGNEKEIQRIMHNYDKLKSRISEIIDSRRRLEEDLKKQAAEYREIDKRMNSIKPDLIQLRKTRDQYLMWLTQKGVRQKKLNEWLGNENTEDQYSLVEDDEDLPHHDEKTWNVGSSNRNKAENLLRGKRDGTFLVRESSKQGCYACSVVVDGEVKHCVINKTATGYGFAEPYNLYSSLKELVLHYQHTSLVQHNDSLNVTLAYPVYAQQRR
Description: as §1, §2, §3, §4, §5

PI3Kdelta, sequence (O00329 whole entry, canonical isoform): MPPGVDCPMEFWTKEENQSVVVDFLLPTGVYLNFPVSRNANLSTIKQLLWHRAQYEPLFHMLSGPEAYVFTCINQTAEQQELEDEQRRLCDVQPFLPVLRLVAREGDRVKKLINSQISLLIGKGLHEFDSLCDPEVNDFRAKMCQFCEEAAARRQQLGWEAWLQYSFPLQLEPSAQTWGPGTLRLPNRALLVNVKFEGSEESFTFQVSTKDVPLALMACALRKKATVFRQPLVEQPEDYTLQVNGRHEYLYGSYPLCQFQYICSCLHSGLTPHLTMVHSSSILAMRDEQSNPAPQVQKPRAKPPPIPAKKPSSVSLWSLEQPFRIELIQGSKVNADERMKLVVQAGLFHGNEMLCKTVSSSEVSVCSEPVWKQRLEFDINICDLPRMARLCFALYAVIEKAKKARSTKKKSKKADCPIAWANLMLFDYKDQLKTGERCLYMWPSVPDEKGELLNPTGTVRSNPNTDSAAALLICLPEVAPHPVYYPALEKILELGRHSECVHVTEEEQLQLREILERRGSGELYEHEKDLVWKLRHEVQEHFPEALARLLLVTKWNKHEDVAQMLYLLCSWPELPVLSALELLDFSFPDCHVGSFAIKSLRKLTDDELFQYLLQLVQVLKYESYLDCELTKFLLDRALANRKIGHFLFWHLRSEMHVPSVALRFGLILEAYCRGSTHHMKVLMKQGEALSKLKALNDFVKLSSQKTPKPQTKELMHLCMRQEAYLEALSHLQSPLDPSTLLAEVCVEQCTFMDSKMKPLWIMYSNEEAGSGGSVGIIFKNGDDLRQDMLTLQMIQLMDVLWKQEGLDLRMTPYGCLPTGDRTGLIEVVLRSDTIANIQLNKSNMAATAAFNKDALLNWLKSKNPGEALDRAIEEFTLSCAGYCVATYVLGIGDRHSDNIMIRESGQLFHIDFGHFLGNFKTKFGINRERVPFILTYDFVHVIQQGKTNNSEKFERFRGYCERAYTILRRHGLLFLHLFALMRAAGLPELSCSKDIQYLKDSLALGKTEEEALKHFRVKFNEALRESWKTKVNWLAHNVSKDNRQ
PI3Kdelta, sequence (P27986 whole entry partner, canonical isoform): as the sequence (P27986 whole entry partner, canonical isoform) above

Row | IC50 (PI3Kdelta) | Selectivity versus PI3Kalpha (PI3Kalpha) | SMILES
1 | 37 nM | >10 | Cn1cc(-c2nc(N3CCC4(CCC(=O)N4CC(F)(F)F)CC3)cnc2C#N)cn1 [Compound 1-21, 3-(1-methyl-1H-pyrazol-4-yl)-5-[2-oxo-1-(2,2,2-trifluoroethyl)-1,8-diazaspiro[4.5]dec-8-yl]pyrazine-2-carbonitrile]
2 | 30 nM | >10 | CCCN1C(=O)OCC12CCN(c1cnc(C#N)c(-c3cnn(C)c3)n1)CC2 [Compound 1-22, 3-(1-methyl-1H-pyrazol-4-yl)-5-(2-oxo-1-propyl-3-oxa-1,8-diazaspiro[4.5]dec-8-yl)pyrazine-2-carbonitrile]
3 | 18 nM | >10 | Cn1cc(-c2nc(N3CCC4(CC3)COC(=O)N4CC3CCC3)cnc2C#N)cn1 [Compound 1-23, 5-[1-(cyclobutylmethyl)-2-oxo-3-oxa-1,8-diazaspiro[4.5]dec-8-yl]-3-(1-methyl-1H-pyrazol-4-yl)pyrazine-2-carbonitrile]
4 | 10 nM | >10 | Cn1cc(-c2nc(N3CCC4(CC3)COCC(=O)N4CC3CC3)cnc2C#N)cn1 [Compound 1-24, 5-[1-(cyclopropylmethyl)-2-oxo-4-oxa-1,9-diazaspiro[5.5]undec-9-yl]-3-(1-methyl-1H-pyrazol-4-yl)pyrazine-2-carbonitrile]
5 | 52 nM | >10 | Cn1cc(-c2nc(N3CCC(C)(N4CCOCC4)CC3)cnc2C#N)cn1 [Compound 1-25, 5-(4-methyl-4-morpholin-4-ylpiperidin-1-yl)-3-(1-methyl-1H-pyrazol-4-yl)pyrazine-2-carbonitrile]
6 | 70 nM | >10 | Cn1cc(-c2nc(N3CCC(C)(N4CCCCC4)CC3)cnc2C#N)cn1 [Compound 1-26, 5-(4′-methyl-1,4′-bipiperidin-1′-yl)-3-(1-methyl-1H-pyrazol-4-yl)pyrazine-2-carbonitrile]
7 | 100 nM | >10 | CO[C@H]1C[C@@H](C(=O)N2CCN(c3cnc(C#N)c(-c4cnn(C)c4)n3)C[C@H]2C)C1 [Compound 1-27, 5-{(3R)-4-[(cis-3-methoxycyclobutyl)carbonyl]-3-methylpiperazin-1-yl}-3-(1-methyl-1H-pyrazol-4-yl)pyrazine-2-carbonitrile]
8 | 100 nM | >10 | C[C@@H]1CN(c2cnc(C#N)c(-c3cnn(C)c3)n2)CCN1C(=O)C1CC(F)(F)C1 [Compound 1-28, 5-{(3R)-4-[(3,3-difluorocyclobutyl)carbonyl]-3-methylpiperazin-1-yl}-3-(1-methyl-1H-pyrazol-4-yl)pyrazine-2-carbonitrile]
9 | 29 nM | >10 | C[C@@H]1CN(c2cnc(C#N)c(-c3cnn(C)c3)n2)CCN1C(=O)[C@@H]1C[C@@H]1F [Compound 1-29, 5-[(3R)-4-{[(1S,2S)-2-fluorocyclopropyl]carbonyl}-3-methylpiperazin-1-yl]-3-(1-methyl-1H-pyrazol-4-yl)pyrazine-2-carbonitrile]
10 | 150 nM | >10 | CCC(=O)N1CCN(c2cnc(C#N)c(-c3cnn(C)c3)n2)C[C@H]1C [Compound 1-30, 5-[(3R)-3-methyl-4-propanoylpiperazin-1-yl]-3-(1-methyl-1H-pyrazol-4-yl)pyrazine-2-carbonitrile]
11 | 280 nM | >10 | C[C@@H]1CN(c2cnc(C#N)c(-c3cnn(C)c3)n2)CCN1C(=O)C1(C)CC1 [Compound 1-31, 5-{(3R)-3-methyl-4-[(1-methylcyclopropyl)carbonyl]piperazin-1-yl}-3-(1-methyl-1H-pyrazol-4-yl)pyrazine-2-carbonitrile]
12 | 180 nM | >10 | C[C@@H]1CN(c2cnc(C#N)c(-c3cnn(C)c3)n2)CCN1C(=O)N1CCCC1 [Compound 1-32, 3-(1-methyl-1H-pyrazol-4-yl)-5-[(3R)-3-methyl-4-(pyrrolidin-1-ylcarbonyl)piperazin-1-yl]pyrazine-2-carbonitrile]
13 | 300 nM | >10 | C[C@@H]1CN(c2cnc(C#N)c(-c3cnn(C)c3)n2)CCN1C(=O)N1CC2(COC2)C1 [Compound 1-33, 5-[(3R)-3-methyl-4-(2-oxa-6-azaspiro[3.3]hept-6-ylcarbonyl)piperazin-1-yl]-3-(1-methyl-1H-pyrazol-4-yl)pyrazine-2-carbonitrile]
14 | 210 nM | >10 | C[C@@H]1CN(c2cnc(C#N)c(-c3cnn(C)c3)n2)CCN1C(=O)NCC1CC1 [Compound 1-34, (2R)-4-[5-cyano-6-(1-methyl-1H-pyrazol-4-yl)pyrazin-2-yl]-N-(cyclopropylmethyl)-2-methylpiperazine-1-carboxamide]
15 | 110 nM | >10 | CO[C@H]1CCN(C(=O)N2CCN(c3cnc(C#N)c(-c4cnn(C)c4)n3)C[C@H]2C)C1 [Compound 1-35, 5-[(3R)-4-{[(3S)-3-methoxypyrrolidin-1-yl]carbonyl}-3-methylpiperazin-1-yl]-3-(1-methyl-1H-pyrazol-4-yl)pyrazine-2-carbonitrile]
16 | 160 nM | >10 | COC1CN(C(=O)N2CCN(c3cnc(C#N)c(-c4cnn(C)c4)n3)C[C@H]2C)C1 [Compound 1-36, 5-{(3R)-4-[(3-methoxyazetidin-1-yl)carbonyl]-3-methylpiperazin-1-yl}-3-(1-methyl-1H-pyrazol-4-yl)pyrazine-2-carbonitrile]
17 | 53 nM | >10 | C[C@@H]1CN(c2cnc(C#N)c(-c3cnn(C)c3)n2)CCN1C(=O)N1CCC1 [Compound 1-37, 5-[(3R)-4-(azetidin-1-ylcarbonyl)-3-methylpiperazin-1-yl]-3-(1-methyl-1H-pyrazol-4-yl)pyrazine-2-carbonitrile]
18 | 210 nM | >10 | COC(=O)N1CCN(c2cnc(C#N)c(-c3cnn(C)c3)n2)C[C@H]1C [Compound 1-38, methyl (2R)-4-[5-cyano-6-(1-methyl-1H-pyrazol-4-yl)pyrazin-2-yl]-2-methylpiperazine-1-carboxylate]
19 | 50 nM | >10 | C[C@@H]1C[C@H]1C(=O)N1CCN(c2cnc(C#N)c(-c3cn[nH]c3)n2)C[C@H]1C [Compound 1-39, 5-[(3R)-3-methyl-4-{[(1R,2R)-2-methylcyclopropyl]carbonyl}piperazin-1-yl]-3-(1H-pyrazol-4-yl)pyrazine-2-carbonitrile]
